Structures can show the parent of a compound that is named as a salt.
What follows are molecules tested against hNav1.7 (Homo sapiens (Human), UniProt Q15858) (assay: Tritiated sulfonamide competitive binding to membranes from cells expressing hNav1.7 and the β1 subunit). Conditions: not given.
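Also: Filter-bound radioactivity counted by liquid scintillation, nonspecific binding defined with excess unlabelled ligand, IC50 fitted to percent inhibition of specific binding.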

Chain of hNav1.7 (Q15858 other isoform, or with tags, fused parts or gaps): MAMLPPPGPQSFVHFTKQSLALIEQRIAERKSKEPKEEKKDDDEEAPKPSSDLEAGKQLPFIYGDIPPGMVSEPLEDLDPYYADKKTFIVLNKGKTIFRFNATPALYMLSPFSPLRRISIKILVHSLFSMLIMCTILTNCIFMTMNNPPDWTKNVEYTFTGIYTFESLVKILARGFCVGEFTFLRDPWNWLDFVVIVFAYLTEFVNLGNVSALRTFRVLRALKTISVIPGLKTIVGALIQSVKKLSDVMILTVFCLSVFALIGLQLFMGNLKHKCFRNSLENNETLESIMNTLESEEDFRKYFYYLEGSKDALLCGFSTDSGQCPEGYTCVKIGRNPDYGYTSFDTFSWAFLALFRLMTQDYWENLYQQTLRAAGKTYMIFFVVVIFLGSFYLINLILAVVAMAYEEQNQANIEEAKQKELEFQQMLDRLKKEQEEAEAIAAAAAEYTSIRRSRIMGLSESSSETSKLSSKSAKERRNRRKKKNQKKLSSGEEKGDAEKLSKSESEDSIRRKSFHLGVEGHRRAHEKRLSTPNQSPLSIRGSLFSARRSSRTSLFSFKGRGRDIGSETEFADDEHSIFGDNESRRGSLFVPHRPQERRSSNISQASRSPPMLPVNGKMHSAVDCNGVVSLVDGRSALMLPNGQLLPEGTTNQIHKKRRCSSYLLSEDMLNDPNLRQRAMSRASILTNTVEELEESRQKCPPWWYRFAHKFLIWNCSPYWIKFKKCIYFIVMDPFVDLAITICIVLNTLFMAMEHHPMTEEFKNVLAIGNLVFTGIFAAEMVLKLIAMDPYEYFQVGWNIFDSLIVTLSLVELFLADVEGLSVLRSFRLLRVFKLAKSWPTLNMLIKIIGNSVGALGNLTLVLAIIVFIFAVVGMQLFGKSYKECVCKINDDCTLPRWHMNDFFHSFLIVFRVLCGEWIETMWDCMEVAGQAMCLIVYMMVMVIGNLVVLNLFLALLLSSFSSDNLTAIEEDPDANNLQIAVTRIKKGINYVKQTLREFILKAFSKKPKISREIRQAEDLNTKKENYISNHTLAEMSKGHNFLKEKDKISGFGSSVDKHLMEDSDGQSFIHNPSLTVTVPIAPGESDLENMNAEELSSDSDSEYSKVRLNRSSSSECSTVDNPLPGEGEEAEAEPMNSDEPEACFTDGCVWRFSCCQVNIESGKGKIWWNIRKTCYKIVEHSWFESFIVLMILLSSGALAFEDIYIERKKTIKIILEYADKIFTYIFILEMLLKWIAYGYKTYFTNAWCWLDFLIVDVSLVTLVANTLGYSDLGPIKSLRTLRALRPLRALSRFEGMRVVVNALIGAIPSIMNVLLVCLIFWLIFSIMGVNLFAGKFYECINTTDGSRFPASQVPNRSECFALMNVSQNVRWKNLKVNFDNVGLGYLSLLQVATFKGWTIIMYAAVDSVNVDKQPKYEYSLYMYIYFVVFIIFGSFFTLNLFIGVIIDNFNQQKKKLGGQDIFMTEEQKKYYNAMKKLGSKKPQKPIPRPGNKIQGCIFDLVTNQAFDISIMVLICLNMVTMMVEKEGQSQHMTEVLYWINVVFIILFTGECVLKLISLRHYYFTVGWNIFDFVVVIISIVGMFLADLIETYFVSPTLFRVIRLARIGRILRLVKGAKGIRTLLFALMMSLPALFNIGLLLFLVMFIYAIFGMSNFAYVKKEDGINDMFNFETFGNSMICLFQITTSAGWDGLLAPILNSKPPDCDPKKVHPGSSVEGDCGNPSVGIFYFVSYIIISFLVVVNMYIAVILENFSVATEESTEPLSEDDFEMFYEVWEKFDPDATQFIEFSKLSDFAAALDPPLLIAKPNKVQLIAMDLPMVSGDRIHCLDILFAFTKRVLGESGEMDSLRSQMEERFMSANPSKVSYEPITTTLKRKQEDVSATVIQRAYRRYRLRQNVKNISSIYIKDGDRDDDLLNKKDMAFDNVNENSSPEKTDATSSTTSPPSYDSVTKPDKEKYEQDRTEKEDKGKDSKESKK
Chain of hNav1.7 (Q07699 19-218 partner): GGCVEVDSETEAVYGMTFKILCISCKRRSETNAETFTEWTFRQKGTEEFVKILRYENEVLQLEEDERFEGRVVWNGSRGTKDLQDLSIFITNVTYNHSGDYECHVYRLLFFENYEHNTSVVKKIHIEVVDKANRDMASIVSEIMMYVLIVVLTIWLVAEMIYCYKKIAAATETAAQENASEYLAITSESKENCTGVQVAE

In order of rising IC50:
1. C[C@@H]1CN(Cc2cc(F)c(C(=O)NS(=O)(=O)C3CC3)cc2C2CC2)CCN1[C@H](C)c1cc(Cl)cc(Cl)c1 [Example 570, 5-cyclopropyl-N-(cyclopropylsulfonyl)-4-(((R)-4-((R)-1-(3,5-dichlorophenyl)ethyl)-3-methylpiperazin-1-yl)methyl)-2-fluorobenzamide]  2.9 nM
2. CS(=O)(=O)NC(=O)c1cc(C2CC2)c(CN2CCC(Oc3ccc(Cl)cc3Cl)CC2)cc1F [Example 546, 5-cyclopropyl-4-((4-(2,4-dichlorophenoxy)piperidin-1-yl)methyl)-2-fluoro-N-(methylsulfonyl)benzamide, trifluoroacetic acid salt]  11.9 nM
3. C[C@@H]1CN(Cc2cc(F)c(C(=O)NS(=O)(=O)C3CC3)cc2C2CC2)CCN1[C@@H](C)c1cc(Cl)cc(Cl)c1 [Example 572, 5-cyclopropyl-N-(cyclopropylsulfonyl)-4-(((R)-4-((S)-1-(3,5-dichlorophenyl)ethyl)-3-methylpiperazin-1-yl)methyl)-2-fluorobenzamide]  21.6 nM
4. CC(=O)N1CCC[C@@H](Oc2cc(F)c(C(=O)NS(=O)(=O)C3CC3)cc2C2CC2)C1 [Example 4, (R)-4-((1-acetylpiperidin-3-yl)oxy)-5-cyclopropyl-N-(cyclopropylsulfonyl)-2-fluorobenzamide]  6600 nM

Same assay, conditions: read-out: Ligand Binding Assay; 100 pM [3H]compound, membranes with hNav1.7 and β1 subunit, 18 h, room temperature

In order of falling IC50:
1. CS(=O)(=O)NC(=O)c1cc(C2CC2)c(OCC2CCN(S(=O)(=O)C3CCOCC3)CC2)cc1F [Example 376, 5-cyclopropyl-2-fluoro-N-(methylsulfonyl)-4-((1-((tetrahydro-2H-pyran-4-yl)sulfonyl)piperidin-4-yl)methoxy)benzamide]  2450 nM
2. O=C(NS(=O)(=O)C1CC1)c1cc(C2CC2)c(OCC2CCN(C(=O)c3ccccc3)CC2)cc1F [Example 198, 4-((1-Benzoylpiperidin-4-yl)methoxy)-5-cyclopropyl-N-(cyclopropylsulfonyl)-2-fluorobenzamide]  550 nM
3. COC[C@H](c1ccccc1)N1CCC(COc2cc(F)c(C(=O)NS(C)(=O)=O)cc2C2CC2)CC1 [Example 223, (S)-5-cyclopropyl-2-fluoro-4-((1-(2-methoxy-1-phenylethyl)piperidin-4-yl)methoxy)-N-(methylsulfonyl)benzamide]  250 nM
4. CS(=O)(=O)NC(=O)c1cc(C2CC2)c(OCC2CN([C@@H](c3ccccc3)c3ccccc3Cl)C2)cc1F [Example 150, (S)-4-((1-((2-Chlorophenyl)(phenyl)methyl)azetidin-3-yl)methoxy)-5-cyclopropyl-2-fluoro-N-(methylsulfonyl)benzamide]  100 nM
5. CS(=O)(=O)NC(=O)c1cc(C2CC2)c(O[C@@H]2CCCN(Cc3ccc4c(c3)OCCO4)C2)cc1F [Example 429, (R)-5-cyclopropyl-4-((1-((2,3-dihydrobenzo[b][1,4]dioxin-6-yl)methyl)piperidin-3-yl)oxy)-2-fluoro-N-(methylsulfonyl)benzamide, trifluoroacetic acid salt]  51.9 nM
6. O=C(NS(=O)(=O)CCC(F)(F)F)c1cc(C2CC2)c(OCC2CN(C(c3ccccc3)c3ccccc3)C2)cc1F [Example 63, 4-((1-benzhydrylazetidin-3-yl)methoxy)-5-cyclopropyl-2-fluoro-N-((3,3,3-trifluoropropyl)sulfonyl)benzamide]  46 nM
7. O=C(NS(=O)(=O)C1CC1)c1cc(C2CC2)c(CN2CCC[C@@H](Oc3cc(Cl)cc(Cl)c3)C2)cc1F [Example 55, (R)-5-cyclopropyl-N-(cyclopropylsulfonyl)-4-((3-(3,5-dichlorophenoxy)piperidin-1-yl)methyl)-2-fluorobenzamide]  23.3 nM
8. O=C(NS(=O)(=O)C1CC1)c1cc(C2CC2)c(OCC2CCN(S(=O)(=O)c3cccc(C(F)(F)F)c3)CC2)cc1F [Example 375, 5-cyclopropyl-N-(cyclopropylsulfonyl)-2-fluoro-4-((1-((3-(trifluoromethyl)phenyl)sulfonyl)piperidin-4-yl)methoxy)benzamide]  14.6 nM
9. CS(=O)(=O)NC(=O)c1cc(C2CC2)c(OCC2CCN(C(CF)c3cc(Cl)cc(Cl)c3)CC2)cc1F (stereo not drawn) [Example 358, 5-cyclopropyl-4-((1-(1-(3,5-dichlorophenyl)-2-fluoroethyl)piperidin-4-yl)methoxy)-2-fluoro-N-(methylsulfonyl)benzamide, trifluoroacetic acid salt]  14 nM
10. Cc1ccc(CN2CCC[C@@H](Oc3cc(F)c(C(=O)NS(C)(=O)=O)cc3C3CC3)C2)cc1C [Example 439, (R)-5-cyclopropyl-4-((1-(3,4-dimethylbenzyl)piperidin-3-yl)oxy)-2-fluoro-N-(methylsulfonyl)benzamide, trifluoracetic acid salt]  11 nM
11. O=C(NS(=O)(=O)C1CC1)c1cc(C2CC2)c(CN2CCC(Oc3ncc(Br)cc3Cl)CC2)cc1F [Example 473, 4-((4-((5-bromo-3-chloropyridin-2-yl)oxy)piperidin-1-yl)methyl)-5-cyclopropyl-N-(cyclopropylsulfonyl)-2-fluorobenzamide, trifluoroacetic acid salt]  9.5 nM
12. CS(=O)(=O)NC(=O)c1cc(C2CC2)c(OCC2CCN(Cc3cc(F)c(F)c(Cl)c3)CC2)cc1F [Example 456, 4-((1-(3-chloro-4,5-difluorobenzyl)piperidin-4-yl)methoxy)-5-cyclopropyl-2-fluoro-N-(methylsulfonyl)benzamide, trifluoroacetic acid salt]  9.3 nM
13. COC[C@@H](c1ccc(Cl)c(Cl)c1)N1CCC(COc2cc(F)c(C(=O)NS(C)(=O)=O)cc2C2CC2)CC1 (single isomer, unassigned) [Example 264]  9.2 nM
14. CS(=O)(=O)NC(=O)c1cc(C2CC2)c(OCC2CCN(S(=O)(=O)c3cc(Cl)cc(Cl)c3)CC2)cc1F [Example 273, 5-Cyclopropyl-4-((1-((3,5-dichlorophenyl)sulfonyl)piperidin-4-yl)methoxy)-2-fluoro-N-(methylsulfonyl)benzamide]  8.5 nM
15. CC(c1cc(Cl)cc(Cl)c1)N1CCN(Cc2cc(F)c(C(=O)NS(C)(=O)=O)cc2C2CC2)CC1 (stereo not drawn) [Example 540]  7.8 nM
16. CS(=O)(=O)NC(=O)c1cc(C2CC2)c(OCC2CCN(Cc3ccc(Cl)c(C(F)(F)F)c3)CC2)cc1F [Example 229, 4-((1-(4-Chloro-3-(trifluoromethyl)benzyl)piperidin-4-yl)methoxy)-5-cyclopropyl-2-fluoro-N-(methylsulfonyl)benzamide]  7.3 nM
17. CS(=O)(=O)NC(=O)c1cc(C2CC2)c(O[C@@H]2CCCN(CC3(C(F)(F)F)CCC3)C2)cc1F [Example 328, (R)-5-cyclopropyl-2-fluoro-N-(methylsulfonyl)-4-((1-((1-(trifluoromethyl)cyclobutyl)methyl)piperidin-3-yl)oxy)benzamide]  6.4 nM
18. O=C(NS(=O)(=O)C1CC1)c1cc(C2CC2)c(OCC2CCN(Cc3ccc(C4CC4)cc3Cl)CC2)cc1F [Example 416, 4-((1-(2-chloro-4-cyclopropylbenzyl)piperidin-4-yl)methoxy)-5-cyclopropyl-N-(cyclopropylsulfonyl)-2-fluorobenzamide, trifluoroacetic acid salt]  5.3 nM
19. CC1(COc2cc(F)c(C(=O)NS(C)(=O)=O)cc2C2CC2)CCN(Cc2ccc(Cl)c(Cl)c2)CC1 [Example 575, 5-cyclopropyl-4-((1-(3,4-dichlorobenzyl)-4-methylpiperidin-4-yl)methoxy)-2-fluoro-N-(methylsulfonyl)benzamide]  4.5 nM
20. CC1(COc2cc(F)c(C(=O)NS(C)(=O)=O)cc2C2CC2)CCN(Cc2cc(C(F)(F)F)cc(Cl)c2F)CC1 [Example 141, 4-((1-(3-chloro-2-fluoro-5-(trifluoromethyl)benzyl)-4-methylpiperidin-4-yl)methoxy)-5-cyclopropyl-2-fluoro-N-(methylsulfonyl)benzamide]  3.9 nM
21. CS(=O)(=O)NC(=O)c1cc(C2CC2)c(OCC2CCN(Cc3cc(C(F)(F)F)cc(Cl)c3F)CC2)cc1F [Example 581, 4-((1-(3-chloro-2-fluoro-5-(trifluoromethyl)benzyl)piperidin-4-yl)methoxy)-5-cyclopropyl-2-fluoro-N-(methylsulfonyl)benzamide]  3.8 nM
22. CS(=O)(=O)NC(=O)c1cc(C2CC2)c(O[C@@H]2CCCN(Cc3cccc(-c4ccccc4)c3)C2)cc1F [Example 443, (R)-4-((1-([1,1′-biphenyl]-3-ylmethyl)piperidin-3-yl)oxy)-5-cyclopropyl-2-fluoro-N-(methylsulfonyl)benzamide, trifluoroacetic acid salt]  3.4 nM
23. CS(=O)(=O)NC(=O)c1cc(C2CC2)c(O[C@@H]2CCCN(Cc3ccccc3-c3ccccc3)C2)cc1F [Example 442, (R)-4-((1-([1,1′-biphenyl]-2-ylmethyl)piperidin-3-yl)oxy)-5-cyclopropyl-2-fluoro-N-(methylsulfonyl)benzamide, trifluoroacetic acid salt]  3.1 nM
24. CS(=O)(=O)NC(=O)c1cc(C2CC2)c(OCC2CCN(C(c3ccc(Cl)cc3)c3ccc(Cl)cc3)CC2)cc1F [Example 362, 4-((1-(bis(4-chlorophenyl)methyl)piperidin-4-yl)methoxy)-5-cyclopropyl-2-fluoro-N-(methylsulfonyl)benzamide, trifluoroacetic acid salt]  2.9 nM
25. CC1(COc2cc(F)c(C(=O)NS(C)(=O)=O)cc2C2CC2)CN(C(c2ccccc2)c2cc(Cl)cc(Cl)c2)C1 (stereo not drawn) [Example 420, 5-cyclopropyl-4-((1-((3,5-dichlorophenyl)(phenyl)methyl)-3-methylazetidin-3-yl)methoxy)-2-fluoro-N-(methylsulfonyl)benzamide, trifluoroacetic acid salt]  2.4 nM
26. CC(c1cc(Cl)cc(Cl)c1F)N1CCC(COc2cc(F)c(C(=O)NS(C)(=O)=O)cc2C2CC2)CC1 (stereo in doubt) [Example 236, (R)-5-cyclopropyl-4-((1-(1-(3,5-dichloro-2-fluorophenyl)ethyl)piperidin-4-yl)methoxy)-2-fluoro-N-(methylsulfonyl)benzamide]  1.6 nM

Reference: patent US9546164B2 (GENENTECH, INC., priority 2013, dated 2017)
